From PMC7139549, “TLD1433 Photosensitizer Inhibits Conjunctival Melanoma Cells in Zebrafish Ectopic and Orthotopic Tumour Models” (Cancers, 2020)
Where two headings read alike, the source gives them in different places.

Key:
[1] = system: OMM2.5 uveal melanoma cell line; assay: SRB cell viability assay, OMM2.5; format: cell-based, Human
Experimental: TLD1433 is known to generate reactive oxygen species (ROS) with high quantum efficacy in many cancer cell lines. However, there is no report of the in vitro toxicity of this compound in eye melanoma (UM) cell lines. We determined the cell viability of three conjunctival melanoma cell lines (CRMM1, CRMM2 and CM2005.1), and three uveal melanoma cell lines (OMM1, OMM2.5, MEL270) in the presence of TLD1433, both in the dark or under green light irradiation (21 mW/cm^2, 19 J/cm^2, 520 nm, 15 min), and compared this viability to epidermoid carcinoma A431 and cutaneous melanoma A375 cell lines under the same conditions. The protocol used was based on previous work from the Bonnet group, and differed slightly from recommendations from McFarland et al.. […] The effective concentration (EC50) values, i.e., the concentration required to reduce cell viability by 50% compared to untreated wells, were assessed by fitting the dose-response curves with a Hill equation. The phototoxicity index (PI), defined as the ratio of the dark EC50 to the light EC50, was also calculated and represents the amplification of TLD1433 activity with a light trigger. […]
Figure 2 Cell viability after TLD1433 treatment of eight tumour cell lines (CRMM1, CRMM2, CM2005.1, OMM1, OMM2.5, MEL270, A431, A375). […] The absorbance of Sulforhodamine B in solution was measured at 520 nm. […]
At day 0, cells were detached using 1mL of trypsin, resuspended in 4 mL of media and transferred to a 15 mL corning falcon tube. Cells were counted using trypan blue and BioRad® TC20™ automated cell counter (Figure 11). Dilutions of 6000 (CRMM1), 6000 (CRMM2), 8000 (CM2005.1), 6000 (OMM1), 6000 (OMM2.5), 6000 (MEL270) 8000 (A431), and 4000 (A375) cells/well were calculated from each cell suspension at a final volume of 6 mL using the following formula: Vc=(Vt×10C)/Lc where Vt = total volume of solution, C = number of cells per well/per 100 μL and Lc = live cells count (cells/mL). […] Next day, the dye was dissolved using Tri-base (0.25%) and absorbance of SRB at 510 nm was recorded from each well using a Tecan plate reader. […]

[2] = system: CM engrafted zebrafish embryos; assay: Maximum tolerated dose in CM engrafted zebrafish embryos (ectopic and orthotopic model); format: in vivo, Zebrafish (Danio rerio); details: light-activated
Experimental: To engage both CM models for testing the efficacy of TLD1433 as a potential new PDT treatment strategy to combat CM growth, first, the MTD of TLD1433 delivered into zebrafish embryos engrafted with CM cells was measured (Table 2) following the same procedure as already described for wild type embryos (Figure 5 and Table 2). Engrafted embryos were more sensitive to light-activated TLD1433 than non-engrafted embryos (Table 2). MTD concentrations of 4.6 nM and 2.3 mM were delivered by WA, IV and RO administration. […] The TLD1433 concentration in these experiments was not increased further as the initial treatment was already at the pre-determined MTD.
For determining the MTD of the WA of the TLD1433 solution in wild type zebrafish, solutions of 2.3 nM, 4.6 nM, 9.2 nM, 11.5 nM, 23 nM were made before the experiment. At 2.5, 3.5, 4.5, 5.5 dpf, TLD1433 was added to the fish water and maintained for 12 h. At 3, 4, 5, 6 dpf, the fish water was refreshed and after 1 h, embryos were exposed to green light for 90 min (520 nm, 21 mW/cm^2, 114 J/cm^2). For the IV and RO administration, TLD1433 solutions (1.15 mM, 2.3 mM, 4.6 mM, 9.2 mM, 11.5 mM) were prepared before the experiment. At 3, 4, 5, 6 dpf, 1nL of TLD1433 was injected via the dorsal vein or the RO site and maintained for 1 h. After each of the 4 injections, the embryos were exposed to green light for 90 min (520 nm, 21 mW/cm^2, 114 J/cm^2). The images of treated and wild type embryos at 6 dpf were taken using a DFC420C camera coupled to a Leica MZ16FA fluorescence microscope. In order to determine the MTD of tumour cell bearing zebrafish, TLD1433 was performed according to the same procedure, delivered by WA, IV and […] administration as described above for the wild type embryos.

Cc1ccnc(-c2cc(C)ccn2)c1.Cc1ccnc(-c2cc(C)ccn2)c1.[Cl-].[Cl-].[Ru+2].c1csc(-c2ccc(-c3ccc(-c4nc5c6cccnc6c6ncccc6c5[nH]4)s3)s2)c1 [TLD1433]
EC50 ([1]; OMM2.5, dark, 24 h treatment, SRB, read-out: EC50, dark): 0.64 µM
EC50 ([1]; OMM2.5, green light 520 nm, 15 min, 21 mW/cm^2, 19 J.cm^−2, DLI 24 h, read-out: EC50,light): 0.013 µM
PI (photo index) ([1]; OMM2.5, ratio of dark and light EC50, 19 J.cm^−2 green light): 49
Maximum Tolerated Dose (MTD) ([2]; Intravenous 1 nL): 2.3 mM
Maximum Tolerated Dose (MTD) ([2]; Retro-orbital 1 nL): 2.3 mM
Maximum Tolerated Dose (MTD) ([2]; Water administration): 4.6e-06 mM
